Test results: US11168083B2, “Inhibitors of Plasma Kallikrein and uses thereof” (Takeda Pharmaceutical Company Limited, priority 2017, dated 2021)

Target: human activated kallikrein enzyme (Homo sapiens (Human), UniProt P03952)
Assay: Inhibition of human activated kallikrein enzyme, fluorogenic peptide substrate assay (two formats)
Format: biochemical
Conditions: Table 2; column head prints nM, ranges defined in μM; read-out: pKal EC50
Procedure: The example compounds were evaluated for inhibition of the human activated kallikrein enzyme in two formats of an assay employing a fluorogenic peptide substrate. In one assay format, the concentrations of reagents were as follows: 20 mM Tris pH 7.5, 1 mM EDTA, 150 mM sodium chloride, 0.1% PEG-400, 0.1% Triton X-100, 500 pM activated kallikrein enzyme, 300 uM Pro-Phe-Arg-7-amido-4-methylcoumarin substrate. Prior to reaction initiation with substrate, enzyme and inhibitors were preincubated for 30 min at room temperature. After initiation with substrate, reactions were incubated for 10 min at room temperature and fluorescence emission at 460 nm from 380 nm excitation measured with a microplate reader. In another assay format, the concentrations of reagents were as follows: 20 mM Tris pH 7.5, 1 mM EDTA, 150 mM sodium chloride, 0.1% PEG-400, 0.1% Triton X-100, 5 pM activated kallikrein enzyme, 300 uM Pro-Phe-Arg-7-amido-4-methylcoumarin substrate. Prior to reaction initiation with substrate, enzyme and inhibitors were preincubated for 30 min at room temperature. After initiation with substrate, reactions were incubated for 18 hr at room temperature and fluorescence emission at 460 nm from 380 nm excitation measured with a microplate reader.

Chain of human activated kallikrein enzyme (P03952 391-638): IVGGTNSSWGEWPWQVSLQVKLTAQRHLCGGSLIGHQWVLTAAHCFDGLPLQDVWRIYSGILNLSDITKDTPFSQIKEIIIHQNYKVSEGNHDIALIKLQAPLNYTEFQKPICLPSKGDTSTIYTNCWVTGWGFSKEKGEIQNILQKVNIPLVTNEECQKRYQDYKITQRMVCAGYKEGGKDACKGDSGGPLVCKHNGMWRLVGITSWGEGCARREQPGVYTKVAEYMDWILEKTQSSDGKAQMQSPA
Chain of human activated kallikrein enzyme (P03952 20-390 partner): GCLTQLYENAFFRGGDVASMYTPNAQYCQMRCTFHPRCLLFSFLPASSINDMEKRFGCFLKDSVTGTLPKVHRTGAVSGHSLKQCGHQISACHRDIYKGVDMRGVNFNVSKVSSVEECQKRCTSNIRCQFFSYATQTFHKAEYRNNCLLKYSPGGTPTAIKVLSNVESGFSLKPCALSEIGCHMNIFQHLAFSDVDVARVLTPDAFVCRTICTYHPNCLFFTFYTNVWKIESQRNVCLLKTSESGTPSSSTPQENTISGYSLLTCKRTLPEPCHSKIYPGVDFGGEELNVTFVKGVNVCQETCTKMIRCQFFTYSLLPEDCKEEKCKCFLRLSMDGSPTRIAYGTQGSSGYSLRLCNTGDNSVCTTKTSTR

EC50 [nM]	SMILES
1000 to 5000	CNC(=O)[C@H](CCCCNC(=N)N)NC(=O)c1csc([C@@H]2C[C@H](O)CN2C(=O)c2cn3cc(Cl)ccc3n2)n1 [Compound 37, 2-((2S,4S)-1-(6-Chloroimidazo[1,2-a]pyridine-2-carbonyl)-4-hydroxypyrrolidin-2-yl)-N—((S)-6-guanidino-1-(methylamino)-1-oxohexan-2-yl)thiazole-4-carboxamide]
≤ 100	Cc1cc2c(N)nccc2c(C)c1CNC(=O)c1csc([C@@H]2C[C@@H](N)CN2C(=O)c2cn3cc(Cl)ccc3n2)n1 [Compound 60, 2-((2S,4R)-4-amino-1-(6-chloroimidazo[1,2-a]pyridine-2-carbonyl)pyrrolidin-2-yl)-N-((1-amino-5,7-dimethylisoquinolin-6-yl)methyl)thiazole-4-carboxamide]
≤ 100	CNC(=O)[C@H](CCCCNC(=N)N)NC(=O)c1csc([C@@H]2C[C@@H](N)CN2C(=O)c2nc3cc(Cl)ccc3s2)n1 [Compound 45, 2-((2S,4R)-4-amino-1-(5-chlorobenzo[d]thiazole-2-carbonyl)pyrrolidin-2-yl)-N—((S)-6-guanidino-1-(methylamino)-1-oxohexan-2-yl)thiazole-4-carboxamide]
100 to 1000	CNC(=O)[C@H](CCCCNC(=N)N)NC(=O)c1csc([C@@H]2C[C@@H](N)CN2C(=O)c2cc3ccc(C)cc3s2)n1 [Compound 65, 2-((2S,4R)-4-amino-1-(6-methylbenzo[b]thiophene-2-carbonyl)pyrrolidin-2-yl)-N—((S)-6-guanidino-1-(methylamino)-1-oxohexan-2-yl)thiazole-4-carboxamide]
1000 to 5000	CNC(=O)[C@H](CCCCNC(=N)N)NC(=O)c1csc([C@@H]2C[C@@H](N)CN2C(=O)c2ccc3nc(Cl)ccc3c2)n1 [Compound 67, 2-((2S,4R)-4-amino-1-(2-chloroquinoline-6-carbonyl)pyrrolidin-2-yl)-N—((S)-6-guanidino-1-(methylamino)-1-oxohexan-2-yl)thiazole-4-carboxamide]
> 9900	CNC(=O)[C@@H](CCCCNC(=N)N)NC(=O)c1csc([C@H]2C[C@H](O)CN2C(=O)c2cn3cc(Cl)ccc3n2)n1 [Compound 8, 2-((2R,4S)-1-(6-Chloroimidazo[,1,2-a]pyridine-2-carbonyl)-4-hydroxypyrrolidin-2-yl)-N—((R)-6-guanidino-1-(methylamino)-1-oxohexan-2-yl)thiazole-4-carboxamide]
> 9900	CNC(=O)[C@H](Cc1ccc(O)cc1)NC(=O)c1csc([C@@H]2C[C@@H](N)CN2C(=O)c2cn3cc(Cl)ccc3n2)n1 [Compound 32, 2-((2S,4R)-4-amino-1-(6-chloroimidazo[1,2-a]pyridine-2-carbonyl)pyrrolidin-2-yl)-N—((S)-3-(4-hydroxyphenyl)-1-(methylamino)-1-oxopropan-2-yl)thiazole-4-carboxamide]
5000 to 9900	CNC(=O)[C@@H](CCCCNC(=N)N)NC(=O)c1csc([C@@H]2C[C@@H](O)CN2C(=O)c2cn3cc(Cl)ccc3n2)n1 [Compound 39, 2-((2S,4R)-1-(6-Chloroimidazo[1,2-a]pyridine-2-carbonyl)-4-hydroxypyrrolidin-2-yl)-N—((R)-6-guanidino-1-(methylamino)-1-oxohexan-2-yl)thiazole-4-carboxamide]
1000 to 5000	NCc1ccc(CCNC(=O)c2csc([C@@H]3C[C@@H](N)CN3C(=O)c3cn4cc(Cl)ccc4n3)n2)cc1 [Compound 54, 2-((2S,4R)-4-amino-1-(6-chloroimidazo[1,2-a]pyridine-2-carbonyl)pyrrolidin-2-yl)-N-(4-(aminomethyl)phenethyl)thiazole-4-carboxamide]
> 9900	CNC(=O)[C@H](CCCCNC(=N)N)NC(=O)c1csc([C@@H]2C[C@@H](N)CN2C(=O)C(C)C)n1 [Compound 18, 2-((2S,4R)-4-amino-1-isobutyrylpyrrolidin-2-yl)-N—((S)-6-guanidino-1-(methylamino)-1-oxohexan-2-yl)thiazole-4-carboxamide]
≤ 100	CNC(=O)[C@H](CCCCNC(=N)N)NC(=O)c1csc([C@@H]2C[C@H](N)CN2C(=O)c2cn3cc(Cl)ccc3n2)n1 [Compound 36, 2-((2S,4S)-4-amino-1-(6-chloroimidazo[1,2-a]pyridine-2-carbonyl)pyrrolidin-2-yl)-N—((S)-6-guanidino-1-(methylamino)-1-oxohexan-2-yl)thiazole-4-carboxamide]
1000 to 5000	CNC(=O)[C@H](CCCCNC(=N)N)NC(=O)c1csc([C@H]2C[C@@H](N)CN2C(=O)c2cn3cc(Cl)ccc3n2)n1 [Compound 1, 2-((2R,4R)-4-amino-1-(6-chloroimidazo[1,2-a]pyridine-2-carbonyl)pyrrolidin-2-yl)-N—((S)-6-guanidino-1-(methylamino)-1-oxohexan-2-yl)thiazole-4-carboxamide]
100 to 1000	CN(C)C(=O)[C@H](CCCCNC(=N)N)NC(=O)c1csc([C@@H]2C[C@@H](N)CN2C(=O)c2cn3cc(Cl)ccc3n2)n1 [Compound 24, 2-((2S,4R)-4-amino-1-(6-chloroimidazo[1,2-a]pyridine-2-carbonyl)pyrrolidin-2-yl)-N—((S)-1-(dimethylamino)-6-guanidino-1-oxohexan-2-yl)thiazole-4-carboxamide]
> 9900	Cc1cc(N)nc(C)c1CCNC(=O)c1csc([C@@H]2C[C@@H](N)CN2C(=O)c2cn3cc(Cl)ccc3n2)n1 [Compound 52, 2-((2S,4R)-4-amino-1-(6-chloroimidazo[1,2-a]pyridine-2-carbonyl)pyrrolidin-2-yl)-N-(2-(6-amino-2,4-dimethylpyridin-3-yl)ethyl)thiazole-4-carboxamide]
100 to 1000	CNC(=O)[C@H](CCCCNC(=N)N)NC(=O)c1csc([C@@H]2C[C@@H](N)CN2C(=O)c2cc3cc(Cl)ccc3s2)n1 [Compound 44, 2-((2S,4R)-4-amino-1-(5-chlorobenzo[b]thiophene-2-carbonyl)pyrrolidin-2-yl)-N—((S)-6-guanidino-1-(methylamino)-1-oxohexan-2-yl)thiazole-4-carboxamide]
> 9900	CNC(=O)[C@@H](CCCCNC(=N)N)NC(=O)c1csc([C@H]2C[C@@H](O)CN2C(=O)c2cn3cc(Cl)ccc3n2)n1 [Compound 10, 2-((2R,4R)-1-(6-Chloroimidazo[1,2-a]pyridine-2-carbonyl)-4-hydroxypyrrolidin-2-yl)-N—((R)-6-guanidino-1-(methylamino)-1-oxohexan-2-yl)thiazole-4-carboxamide]
5000 to 9900	CNC(=O)[C@H](CCCNC(=N)N)NC(=O)c1csc([C@@H]2C[C@@H](N)CN2C(=O)c2cn3cc(Cl)ccc3n2)n1 [Compound 28, 2-((2S,4R)-4-amino-1-(6-chloroimidazo[1,2-a]pyridine-2-carbonyl)pyrrolidin-2-yl)-N—((S)-5-guanidino-1-(methylamino)-1-oxopentan-2-yl)thiazole-4-carboxamide]
100 to 1000	CNC(=O)[C@H](CCCCNC(=N)N)NC(=O)c1csc([C@@H]2C[C@@H](N)CN2C(=O)c2cn3cc(OC)ccc3n2)n1 [Compound 20, 2-((2S,4R)-4-amino-1-(6-methoxyimidazo[1,2-a]pyridine-2-carbonyl)pyrrolidin-2-yl)-N—((S)-6-guanidino-1-(methylamino)-1-oxohexan-2-yl)thiazole-4-carboxamide]
